Measured values taken from US20220356163A1, “SMALL MOLECULE INHIBITORS OF Id PROTEINS” (MEMORIAL SLOAN KETTERING CANCER CENTER, priority 2019, published 2022).
Entries after “also recorded” stand apart in the source; their conditions may differ.

Columns and labels:
Id1 [1] = biological target: T1, Id1 (Mus musculus, UniProt P20067); test: Circular dichroism (CD) of Id1; assay type: binding
T1 construct: GST (N, cleaved yes); made in house; host or cells: E. coli Rosetta 2(DE3)
T1 sequence (P20067 1-168): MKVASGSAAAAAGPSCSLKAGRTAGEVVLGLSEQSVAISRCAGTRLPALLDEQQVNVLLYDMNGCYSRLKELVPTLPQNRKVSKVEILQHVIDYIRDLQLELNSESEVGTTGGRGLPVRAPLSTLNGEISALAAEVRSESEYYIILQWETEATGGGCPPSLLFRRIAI
Protocol: Id protein purification. pGEV-PSP-mId1 and mId3 expression constructs were transformed into Rosetta 2(DE3) Competent Cells (Sigma Millipore) for protein expression. To produce recombinant GST-tagged protein, a 50 mL LB/Ampicillin (100 μg/m)+Chloramphenicol (25 μg/mL) culture was grown overnight at 37° C. Early the next day, the overnight culture was diluted 1:100 into 6 L LB/Ampicillin+Chloramphenicol and cultured at 37° C. for about four hours until OD600=0.7. Cultures were induced with 1 mM IPTG and incubated at 16° C. for 16-18 hours. Cells were harvested by centrifugation at 4000 rpm for 15 minutes at 4° C. and the pellet was resuspended in lysis buffer (50 mM Tris pH 8.0; 400 mM NaCl; 0.5 mM TCEP, Protease Inhibitor Cocktail) (25 mL/L of culture). To lyse the cells, Triton X-100 and lysozyme were added to 0.1% and 10 μg/mL respectively, incubated for 30 minutes on ice and sonicated. Lysates were spun at 17,000 rpm for 30 minutes at 4° C. and supernatants were filtered through a […] filter before incubation with glutathione sepharose for two hours at 4° C. The sepharose with bound protein was run through a polypropylene column and washed twice with 50 mL wash buffer (50 mM Tris pH 8.0; 400 mM NaCl) before protein was eluted with 10 mL 50 mM glutathione elution buffer, pH 8.0. Protein was subjected to buffer exchange with PD10 columns (Sigma) into 12 mL storage buffer (50 mM Tris HCl pH 8.0, 400 mM NaCl, 10 mM EDTA, 1 mM DTT, 10% Glycerol).
GST-tag was cleaved with PreScission Protease (0.1 μL of 0.3 μg/μL PreScission Protease cleaves 10 μg of GST-mId1 when incubated at 4° C. for four hours) and incubated with Glutathione Sepharose to separate out the cleaved GST-tag. The cleaved mId1 protein was further cleaned by incubation with GST antibodies (Abcam #ab9085-200 μL anti-GST rabbit polyclonal; ThermoFisher #MA4-004 anti-GST mouse monoclonal) before Coomassie gel analysis. Cleaved protein was concentrated to desired strength using Amicon 3000MCO Ultra-4 centrifugal columns (UFC800308).
Circular dichroism. […]

ID1 [2] = biological target: T2, ID1 (Homo sapiens, UniProt P41134); test: Western blot for ID1 in HUVECs; assay type: cell-based; design: host or cells: HUVEC; settings: 0-40 μM, 24 hours
T2 sequence (P41134 1-155): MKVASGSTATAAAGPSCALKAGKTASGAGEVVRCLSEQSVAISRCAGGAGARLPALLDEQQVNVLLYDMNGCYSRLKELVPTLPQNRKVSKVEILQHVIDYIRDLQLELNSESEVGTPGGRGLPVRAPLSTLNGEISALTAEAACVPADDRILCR
Protocol: Immunoblotting. For immunoblotting, cells were collected by trypsinization, washed with PBS and lysed in homogenization buffer (0.3 M sucrose, 10 mM Tris (pH 8.0), 400 mM sodium chloride, 3 mM magnesium chloride, 0.5% NP40/IGEPAL, 100 μg/mL Aprotinin+Protease inhibitor cocktail (Roche #11 836 153 001). Proteins were separated by SDS-PAGE, transferred to a membrane (LI-COR), probed with primary antibodies overnight at 4° C., and probed with secondary antibodies (LI-COR) for 1-2 hours at room temperature. Proteins were visualized using the LI-COR Odyssey Infrared Imaging detection system. The following primary antibodies were used Id1, Id2, Id3, Id4 (195-14, 9-2-8, 17-3, 82-12, respectively, all from Biocheck), Cyclin D1 (2978, Cell Signaling), Actin (A2066, Sigma), Tubulin (T4026, Sigma). Western blot quantification was carried out using channel 700 and channel 800 intensity data from Odyssey application software version 3.0.30 (LI-COR), subtracting blank values and normalizing to Tubulin.
The activity of AGX51 was tested on primary human umbilical vein endothelial cells (HUVECs) and the HCT116 colorectal cancer cell line, two cell types with different ID1-4 expression profiles. […] The effects of AGX51 on ID3 loss in HUVECs was diminished in the 20-40 μM range compared with ID1, consistent with the weaker perturbation observed in the CD spectra.

SMILES	alteration of Id1 secondary structure (CD spectra) (Id1 [1]; 0, 10, 20 and 50 μM)	Kd (Id1 [1]; implied from saturation of CD changes, read-out: concentration at which CD changes saturated / range of dissociation constant) [µM]	concentration at which significant decrease in ID1 protein levels was observed (ID1 [2]) [µM]	relative activity in CD assay with Id1 (Id1 [1]; comparison between compounds)
CCC(=O)N(CCC(c1ccc2c(c1)OCO2)c1ccccc1OC)Cc1ccccc1 (racemic) [AGX51, N-(3-(benzo[d][1,3]dioxol-5-yl)-3-(2-methoxyphenyl)propyl)-N-benzylpropionamide]	significant alteration in the secondary structure of Id1	~20	10	
COc1ccccc1C(CCNCc1ccccc1)c1ccc(OC(C)C)cc1 (stereo not shown) [AGX-A, N-benzyl-3-(4-isopropoxyphenyl)-3-(2-methoxyphenyl)propan-1-anine]				exhibiting greater activity than AGX51; also recorded: worked at lower concentrations than AGX51
